Reference: ChEMBL document CHEMBL3217627, “Designing glucokinase activators with reduced hypoglycemia risk: discovery of N,N-dimethyl-5-(2-methyl-6-((5-methylpyrazin-2-yl)-carbamoyl)benzofuran-4-yloxy)pyrimidine-2-carboxamide as a clinical candidate for the treatment of type 2 diabetes mellitus” (Medchemcomm, 2011)
Converted amounts (≈) assume the structure as drawn. The source made the active and inactive calls. The rule behind the calls is not given here.

How the values were obtained:
Hexokinase-4 [1] = molecular target: T1, Hexokinase-4 (Homo sapiens, UniProt P35557)
T1 sequence (P35557 whole entry): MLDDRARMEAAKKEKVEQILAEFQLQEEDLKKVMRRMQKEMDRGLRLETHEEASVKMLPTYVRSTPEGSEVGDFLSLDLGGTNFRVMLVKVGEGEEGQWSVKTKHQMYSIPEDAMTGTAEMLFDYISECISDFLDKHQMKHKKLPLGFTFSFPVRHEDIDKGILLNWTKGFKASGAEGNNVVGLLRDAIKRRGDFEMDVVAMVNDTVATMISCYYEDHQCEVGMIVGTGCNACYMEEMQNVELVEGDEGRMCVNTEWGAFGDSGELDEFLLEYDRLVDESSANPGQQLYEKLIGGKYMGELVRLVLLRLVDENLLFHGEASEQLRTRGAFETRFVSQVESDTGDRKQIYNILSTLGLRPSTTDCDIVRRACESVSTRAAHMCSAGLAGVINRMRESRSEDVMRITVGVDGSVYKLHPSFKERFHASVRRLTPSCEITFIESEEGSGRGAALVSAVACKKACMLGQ
Description: Activation of recombinant human glucokinase assessed as formation of glucose-6-phosphate by G6PDH/NADP coupled assay

[2] = Kinetic solubility of the compound; type: physicochemical; conditions: read-out: Kinetic_solubility
[3] = Intrinsic clearance in human liver microsomes; type: ADME; conditions: read-out: CLH
[4] = Passive permeability across RRCK cells; type: ADME, cell-based, Canis lupus familiaris, MDCKII-LE; conditions: dog, MDCK; read-out: permeability
hERG (KCNH2) = hERG (KCNH2) (Homo sapiens, UniProt Q12809); assay: Inhibition of dofetilide binding to human ERG at 10 uM relative to control; conditions: probe dofetilide
Sequence of hERG (KCNH2) (Q12809 whole entry): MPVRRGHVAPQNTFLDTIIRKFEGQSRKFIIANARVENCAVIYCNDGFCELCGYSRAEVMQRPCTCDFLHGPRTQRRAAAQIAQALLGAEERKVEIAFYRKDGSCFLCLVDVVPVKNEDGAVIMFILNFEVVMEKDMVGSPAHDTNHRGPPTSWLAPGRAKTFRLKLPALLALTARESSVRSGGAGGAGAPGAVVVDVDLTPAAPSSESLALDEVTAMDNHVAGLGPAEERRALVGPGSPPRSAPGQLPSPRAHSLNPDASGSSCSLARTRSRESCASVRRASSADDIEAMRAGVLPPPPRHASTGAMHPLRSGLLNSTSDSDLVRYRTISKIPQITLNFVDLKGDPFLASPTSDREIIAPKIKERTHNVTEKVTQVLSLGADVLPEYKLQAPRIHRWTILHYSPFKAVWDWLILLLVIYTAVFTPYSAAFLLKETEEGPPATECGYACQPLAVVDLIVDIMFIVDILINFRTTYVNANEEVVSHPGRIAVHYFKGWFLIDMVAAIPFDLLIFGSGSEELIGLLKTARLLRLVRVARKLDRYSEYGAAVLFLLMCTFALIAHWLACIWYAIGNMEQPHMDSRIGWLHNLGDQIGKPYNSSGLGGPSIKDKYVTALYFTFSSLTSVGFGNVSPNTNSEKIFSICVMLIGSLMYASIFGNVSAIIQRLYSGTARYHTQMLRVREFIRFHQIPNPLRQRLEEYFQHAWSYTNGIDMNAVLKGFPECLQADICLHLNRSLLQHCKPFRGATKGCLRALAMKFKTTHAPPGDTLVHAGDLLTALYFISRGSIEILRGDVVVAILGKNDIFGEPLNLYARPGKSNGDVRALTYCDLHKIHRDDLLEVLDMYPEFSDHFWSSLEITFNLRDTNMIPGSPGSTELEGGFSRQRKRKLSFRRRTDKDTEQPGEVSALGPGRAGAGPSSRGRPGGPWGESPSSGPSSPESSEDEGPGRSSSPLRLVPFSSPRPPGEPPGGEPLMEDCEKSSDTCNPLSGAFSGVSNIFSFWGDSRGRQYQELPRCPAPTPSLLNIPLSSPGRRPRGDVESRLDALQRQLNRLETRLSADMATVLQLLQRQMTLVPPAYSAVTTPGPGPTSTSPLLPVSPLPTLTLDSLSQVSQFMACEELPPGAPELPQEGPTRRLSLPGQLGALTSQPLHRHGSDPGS

Rattus norvegicus = assay: Antidiabetic activity in Sprague-Dawley rat assessed as reduction of post-prandial glucose excursion at 3 to 100 mg/kg, po administered for 60 mins followed by glucose challenge measured up to 120 mins by OGTT; type: functional, organism-based
Hexokinase-4 [5] = molecular target: T2, Hexokinase-4 (Rattus norvegicus, UniProt P17712); assay: Activation of rat glucokinase
T2 sequence (P17712 whole entry): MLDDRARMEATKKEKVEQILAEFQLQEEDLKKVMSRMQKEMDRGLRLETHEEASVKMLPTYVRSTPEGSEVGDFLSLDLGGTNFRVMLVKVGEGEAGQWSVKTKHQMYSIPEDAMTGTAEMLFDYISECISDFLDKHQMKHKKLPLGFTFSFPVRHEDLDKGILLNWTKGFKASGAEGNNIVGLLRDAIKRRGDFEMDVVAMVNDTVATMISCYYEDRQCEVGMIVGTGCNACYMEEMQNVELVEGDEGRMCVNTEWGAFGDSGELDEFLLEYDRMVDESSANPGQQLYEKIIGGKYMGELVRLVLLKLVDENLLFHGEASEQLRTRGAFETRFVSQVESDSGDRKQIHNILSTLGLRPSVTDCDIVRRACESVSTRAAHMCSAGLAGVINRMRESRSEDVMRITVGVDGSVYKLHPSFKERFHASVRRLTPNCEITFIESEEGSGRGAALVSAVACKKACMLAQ

[6] = Selectivity ratio of EC50 for rat glucokinase to EC50 for human glucokinase
[7] = molecular target: Voltage-gated inwardly rectifying potassium channel KCNH2 (Homo sapiens, UniProt Q12809); assay: Inhibition of dofetilide binding to human ERG
Sequence of Voltage-gated inwardly rectifying potassium channel KCNH2 (Q12809 whole entry): as the sequence (Q12809 whole entry) above

## Cc1cnc(NC(=O)c2cc(Oc3cnc(C(=O)N4CCCCC4)cn3)c3cc(C)oc3c2)cn1
Hexokinase-4 [1]
  EC50: 261 nM
[2]
  solubility kinetic: 24 µM (≈ 11.3 µg/mL)
[3]
  CLint scaled: 18.2 mL/min/kg
[4]
  Papp: 13.3 ×10⁻⁶ cm/s
hERG (KCNH2)
  inhibition at 10 µM: 5%

## Cc1cc2c(Oc3cnc(C(=O)N(C)C)cn3)cc(C(=O)Nc3ccn(C)n3)cc2o1
Hexokinase-4 [1]
  EC50: 331 nM
[2]
  solubility kinetic: 540 µM (≈ 227 µg/mL)
[3]
  CLint scaled: < 8.2 mL/min/kg
[4]
  Papp: 15.4 ×10⁻⁶ cm/s
hERG (KCNH2)
  inhibition at 10 µM: 8%

## CS(=O)(=O)c1ccc([C@@H](C[C@H]2CCC(=O)C2)C(=O)Nc2cnccn2)cc1Cl [PIRAGLIATIN]
Rattus norvegicus
  Activity: Active
Hexokinase-4 [5]
  EC50: 100 nM

## Cc1csc(NC(=O)c2cc(Sc3nccn3C)c(F)cc2N)n1
Hexokinase-4 [1]
  EC50: 66 nM

## COCc1ccc(Oc2cc3[nH]c(-c4ccccn4)nc3cc2[C@H]2CCCN2C(C)=O)cn1
[6]
  Ratio EC50: < 4
Hexokinase-4 [1]
  EC50: 88 nM
Hexokinase-4 [5]
  EC50: 187 nM

## Cc1ccc(Oc2cc(C(=O)Nc3cnc(C)cn3)cc3oc(C)cc23)cc1
Hexokinase-4 [1]
  EC50: 6610 nM
[2]
  solubility kinetic: 18 µM (≈ 6.72 µg/mL)
[3]
  CLint scaled: 47 mL/min/kg
[4]
  Papp: 0.3 ×10⁻⁶ cm/s

## COc1ccc2nc(NC(=O)[C@H](CC3CCCC3)c3ccc(S(=O)(=O)N4CCN(C)CC4)cc3)sc2n1
[6]
  Ratio EC50: < 4
Hexokinase-4 [1]
  EC50: 122 nM
Hexokinase-4 [5]
  EC50: 390 nM

## COc1cnc(NC(=O)c2cc(Oc3cnc(C(=O)N(C)C)cn3)c3cc(C)oc3c2)cn1
Hexokinase-4 [1]
  EC50: 127 nM
[2]
  solubility kinetic: 25 µM (≈ 11.2 µg/mL)
[3]
  CLint scaled: < 8 mL/min/kg
[4]
  Papp: 15.8 ×10⁻⁶ cm/s
hERG (KCNH2)
  inhibition at 10 µM: 6%

## CCc1cnc(NC(=O)c2cc(Oc3cnc(C(=O)N(C)C)cn3)c3cc(C)oc3c2)cn1
Hexokinase-4 [1]
  EC50: 254 nM
[2]
  solubility kinetic: 117 µM (≈ 52.2 µg/mL)
[3]
  CLint scaled: 12.2 mL/min/kg
[4]
  Papp: 23.7 ×10⁻⁶ cm/s

## Cc1cnc(NC(=O)c2cc(Oc3cnc(C(=O)N4CCCC4)cn3)c3cc(C)oc3c2)cn1
Hexokinase-4 [1]
  EC50: 64 nM
[2]
  solubility kinetic: 4.5 µM (≈ 2.06 µg/mL)
[3]
  CLint scaled: < 8.1 mL/min/kg
[4]
  Papp: 15.8 ×10⁻⁶ cm/s
hERG (KCNH2)
  inhibition at 10 µM: 6%

## Cc1cc2c(Oc3cnc(C(=O)N4CC5(COC5)C4)cn3)cc(C(=O)Nc3cnccn3)cc2o1
Hexokinase-4 [1]
  EC50: 2170 nM
[2]
  solubility kinetic: 43 µM (≈ 20.3 µg/mL)
[3]
  CLint scaled: 12.9 mL/min/kg
[4]
  Papp: 19.9 ×10⁻⁶ cm/s

## COC1CN(C(=O)c2cnc(Oc3cc(C(=O)Nc4cnccn4)cc4oc(C)cc34)cn2)C1
Hexokinase-4 [1]
  EC50: > 5000 nM
[2]
  solubility kinetic: 158 µM (≈ 72.8 µg/mL)
[3]
  CLint scaled: < 9.2 mL/min/kg
[4]
  Papp: 21.8 ×10⁻⁶ cm/s
hERG (KCNH2)
  inhibition at 10 µM: 38%

## Cc1cnc(NC(=O)c2cc(Oc3cnc(C(=O)N4CCC4)cn3)c3cc(C)oc3c2)cn1
Hexokinase-4 [1]
  EC50: 85 nM
[2]
  solubility kinetic: 10 µM (≈ 4.44 µg/mL)
[3]
  CLint scaled: < 9.3 mL/min/kg
[4]
  Papp: 17.4 ×10⁻⁶ cm/s
hERG (KCNH2)
  inhibition at 10 µM: 4%

## Cc1cnc(NC(=O)c2cc(Oc3ccc(S(C)(=O)=O)cc3)c3cc(C)oc3c2)cn1
Hexokinase-4 [1]
  EC50: 870 nM
[2]
  solubility kinetic: 3 µM (≈ 1.31 µg/mL)
[3]
  CLint scaled: 13 mL/min/kg
[4]
  Papp: 7.6 ×10⁻⁶ cm/s
[7]
  IC50: 22000 nM

## Cc1cnc(NC(=O)c2cc(Oc3ccc(C#N)cc3)c3cc(C)oc3c2)cn1
Hexokinase-4 [1]
  EC50: 3060 nM
[2]
  solubility kinetic: 2 µM (≈ 0.769 µg/mL)
[3]
  CLint scaled: 29 mL/min/kg
[4]
  Papp: 1.5 ×10⁻⁶ cm/s
[7]
  IC50: 4000 nM

## Cc1cc2c(Oc3cnc(C(=O)N(C)C)cn3)cc(C(=O)Nc3cnc(C(F)(F)F)cn3)cc2o1
Hexokinase-4 [1]
  EC50: 167 nM
[2]
  solubility kinetic: 6 µM (≈ 2.92 µg/mL)
[3]
  CLint scaled: 16.1 mL/min/kg
[4]
  Papp: 9.7 ×10⁻⁶ cm/s
hERG (KCNH2)
  inhibition at 10 µM: 18%

## CCN(C)C(=O)c1cnc(Oc2cc(C(=O)Nc3cnc(C)cn3)cc3oc(C)cc23)cn1
Hexokinase-4 [1]
  EC50: 153 nM
[2]
  solubility kinetic: 344 µM (≈ 154 µg/mL)
[3]
  CLint scaled: < 8 mL/min/kg
[4]
  Papp: 24.1 ×10⁻⁶ cm/s
hERG (KCNH2)
  inhibition at 10 µM: 6%

## Cc1cc2c(Oc3cnc(C(=O)N(C)C)cn3)cc(C(=O)Nc3cnccn3)cc2o1
Hexokinase-4 [1]
  EC50: 391 nM
[2]
  solubility kinetic: 30 µM (≈ 12.6 µg/mL)
[3]
  CLint scaled: 15 mL/min/kg
[4]
  Papp: 30 ×10⁻⁶ cm/s
hERG (KCNH2)
  inhibition at 10 µM: 60%

## Cc1cnc(NC(=O)c2cc(Oc3ccc(C(=O)N(C)C)cc3)c3cc(C)oc3c2)cn1
Hexokinase-4 [1]
  EC50: 92 nM
[3]
  CLint scaled: 17 mL/min/kg
[4]
  Papp: 5.9 ×10⁻⁶ cm/s

## Cc1cnc(NC(=O)c2cc(Oc3ccc(C(=O)N(C)C)nc3)c3cc(C)oc3c2)cn1
Hexokinase-4 [1]
  EC50: 480 nM
[2]
  solubility kinetic: 418 µM (≈ 180 µg/mL)
[3]
  CLint scaled: 11.6 mL/min/kg
[4]
  Papp: 28.5 ×10⁻⁶ cm/s
hERG (KCNH2)
  inhibition at 10 µM: 5%

## Cc1cc2c(Oc3cnc(C(=O)N(C)C)cn3)cc(C(=O)Nc3ncccn3)cc2o1
Hexokinase-4 [1]
  EC50: > 100000 nM
hERG (KCNH2)
  inhibition at 10 µM: 4%

## CS(=O)(=O)c1ccc([C@@H](CC2CCCC2)C(=O)Nc2nccs2)cc1 [Ro-281675]
Hexokinase-4 [5]
  EC50: 235 nM

## Cc1cnc(NC(=O)c2cc(Oc3ncc(C(=O)N(C)C)cn3)c3cc(C)oc3c2)cn1
Hexokinase-4 [1]
  EC50: > 20 nM
[2]
  solubility kinetic: 485 µM (≈ 210 µg/mL)
[3]
  CLint scaled: < 8 mL/min/kg
[4]
  Papp: 34.7 ×10⁻⁶ cm/s
hERG (KCNH2)
  inhibition at 10 µM: 0%

## Cc1cc2c(Oc3cnc(C(=O)N4CC(C)(C)C4)cn3)cc(C(=O)Nc3cnccn3)cc2o1
Hexokinase-4 [1]
  EC50: 705 nM
[2]
  solubility kinetic: 78 µM (≈ 35.8 µg/mL)
[3]
  CLint scaled: 21.2 mL/min/kg
[4]
  Papp: 7.7 ×10⁻⁶ cm/s

## CNC(=O)c1cnc(Oc2cc(C(=O)Nc3cnc(C)cn3)cc3oc(C)cc23)cn1
Hexokinase-4 [1]
  EC50: > 5000 nM
[3]
  CLint scaled: 10.1 mL/min/kg
[4]
  Papp: 20.9 ×10⁻⁶ cm/s
hERG (KCNH2)
  inhibition at 10 µM: 0%

## Cc1cc2c(Oc3cnc(C(=O)N4CC(C)C4)cn3)cc(C(=O)Nc3cnccn3)cc2o1
Hexokinase-4 [1]
  EC50: 393 nM
[2]
  solubility kinetic: 49 µM (≈ 21.8 µg/mL)
[3]
  CLint scaled: < 9.6 mL/min/kg
[4]
  Papp: 14.9 ×10⁻⁶ cm/s
hERG (KCNH2)
  inhibition at 10 µM: 11%

## Cc1cc2c(Oc3cnc(C(=O)N4CC(C)(O)C4)cn3)cc(C(=O)Nc3cnccn3)cc2o1
Hexokinase-4 [1]
  EC50: > 5000 nM
[2]
  solubility kinetic: 137 µM (≈ 63.1 µg/mL)
[3]
  CLint scaled: < 8 mL/min/kg
[4]
  Papp: 9 ×10⁻⁶ cm/s
hERG (KCNH2)
  inhibition at 10 µM: 10%

## Cc1cnc(NC(=O)c2cc(Oc3cnc(C(=O)N(C)C)cn3)c3cc(C)oc3c2)cn1
[2]
  solubility kinetic: 176 µM (≈ 76.1 µg/mL)
[3]
  CLint scaled: < 8.5 mL/min/kg

## Cc1ccc(NC(=O)c2cc(Oc3cnc(C(=O)N(C)C)cn3)c3cc(C)oc3c2)nc1
Hexokinase-4 [1]
  EC50: 477 nM
[2]
  solubility kinetic: 215 µM (≈ 92.8 µg/mL)
[3]
  CLint scaled: < 10.6 mL/min/kg
[4]
  Papp: 21.5 ×10⁻⁶ cm/s
hERG (KCNH2)
  inhibition at 10 µM: 2%
